One substance from patent US8729034B2, “Pharmaceutical composition having virucidal and spermicidal activity” (priority 2007, dated 2014) can be followed below.

Entries after “also recorded” stand apart in the source; their conditions may differ. Where only a bound is given, the exact number is not on record here.

For one assay, the system named is HIV. The assay is described as follows: Inactivation of HIV in vitro (summary statements). The format is cell-based. The protocol:
Human CD4+ T cell line CEM-GFP cells were infected with HIV-1 NL-4.3 virus pretreated without or with Ac-B at varying concentrations (1 hour at 37 degree C.) at a multiplicity of infection (MOI) of 0.01. The cells were then cultured in the presence or absence of Ac-B for up to 7 days post infection. Virus production was analyzed in the culture supernatant on day-7 post infection by p24 antigen capture ELISA
(§1) P4 (Hela-CD4-LTR-β Gal) cells were infected with 0.05 MOI of NL4.3 virus pretreated without or with Ac-B at varying concentrations (1 hour at 37 degree C.) followed by incubation for 48 hours in the presence or absence of Ac-B at a concentration of 0.5 to 2.5 microgram per ml. Virus production was analyzed by ELISA of p24 antigen in the culture supernatant. Viral transmission in the transfected cells was evaluated by X-gal staining, in which an antiretroviral therapeutic drug, Azidothymidine (AZT) was used as positive control.

The test system of assay [1] is human spermatozoa. The assay is described as follows: Motility revival test (Experiment A). The class given is cell-based. Particulars: human spermatozoa treated at MEC, washed, incubated 30-60 minutes at 37 degree C. The protocol:
Human spermatozoa, treated with Ac-B at MEC and BWW control set were washed twice in pre-equilibrated BWW medium, re-suspended in fresh BWW medium and again incubated in a CO2-incubator at 37 degree C. for 30-60 minutes. At the end of the incubation, wet-preparation of spermatozoa was made from each set on a glass slide. The preparation was examined under a phase contrast microscope (at ×400) to note reversal of motility in 10 fields-of-view.

The subject of the next assay is NL4.3 virus. The assay is described as follows: Anti-HIV activity in P4 (Hela-CD4-LTR-β Gal) cells (p24 ELISA, X-gal staining). The class given is cell-based, HIV-1. To be noted: for Percentage inhibition of hiv growth in p4 cell line, Without Pretreatment: untreated virus; for Inhibition of viral transmission, Ac-B-treated virus: subsequent culture with or without Ac-B. As for the experimental part: as §1

The subject of assay [2] is human spermatozoa. The assay is described as follows: Penetrak Test (bovine cervical mucus penetration test). The format is cell-based. Particulars: treated at MEC, washed; 1 hour; BWW control about 27(±3) mm. The protocol:
The bovine cervical mucus penetration test was performed using the Penetrak kit (Serono Diagnostics, Allentown, Pa.).
Working suspension of human spermatozoa, prepared as above was treated in vitro with Ac-B at MEC, washed and resuspended in pre-equilibrated BWW medium. For the negative control set, same treatment was given to the sperms in BWW medium. Flat-capillary tubes filled with periovulatory mid-cycle bovine cervical mucus, in duplicate, were thawed at room temperature for 30 minutes and snapped at the red score mark above the mucus meniscus. The cut end was placed in tube containing treated/control washed sperm suspension and placed inside a CO2 incubator for 1 hour. The capillary tubes were then taken out, cleaned to remove superficially attached sperms, placed on a calibrated slide and examined by phase contrast microscopy (at ×400). The vanguard sperm was located and the distance (in mm) covered by it was measured to score the penetrating capacity of a sperm of the test sets.

A further assay deals with rat spermatozoa. The assay can be described thus: Sander & Cramer spermicidal assay (in vitro). The class given is cell-based. As for the experimental part:
(§2) Sexually mature male mice and rats were autopsied following euthanasia by an overdose of Ketamin (≧200 mg/kg body weight; injected i.p.) and their cauda epididymis were excised. Working suspension of animal spermatozoa was prepared with the exudates obtained after careful pricking of the cauda epididymis with an injection needle (18 G) and the exudates were collected in a conical centrifuge tube.
(§3) The exudates/liquefied human semen samples were suspended in BWW medium (pre equilibrated at 37 degree C.). The spermatozoa with forward motility were separated from immotile or sluggishly motile cells by the swim-up technique and were allowed to disperse evenly within a CO2 incubator at 37 degree C. At least five aliquots from each sample was used to prepare the working spermatozoa suspension. The swim up procedure was as follows:
(§4) Pre equilibrated BWW medium (1.25 ml) was gently layered over cauda-exudates or liquefied human semen (1 ml) in a sterile 15 ml conical-based centrifuge tube. The tube was inclined at an angle of 45 degree and incubated for 1 hour at 37 degree C. in a CO2-incubator. It was then gently returned to the upright position and the uppermost 1 ml medium with a turbid appearance was removed. This aliquot of motile cells was pooled from each set, then diluted with same volumes of pre equilibrated BWW medium, centrifuged at 500 g for 5 minutes and finally resuspended in 1 ml pre equilibrated BWW medium to obtain a working suspension. The sperm cells were counted in a Makler chamber (Zygotec Systems, Springfield, M A, USA) and finally a working spermatozoa suspension having concentration of 25 to 30×10^6 cells/ml was prepared.
(§5) For in vitro assay of spermicidal effect, sperms collected from proven male rats and mice, and motile spermatozoa from liquefied human semen were used.
(§6) The assay was done following the Sander & Cramer assay method. Two hundred micro liter (200 microliters) of working spermatozoa suspension was added to 1 ml solution of test material in BWW medium and mixed on a light vortex for 10 seconds. A wet mount was immediately prepared on a clean microscopy glass slide and examined (at ×100) under a phase contrast microscope (Leitz, Biomed). The weakest concentration that immobilized all spermatozoa within 20 seconds of mixing was recorded as MEC. At least five fields were examined for each wet mount preparation. The observation was repeated with five individual spermatozoa suspension for each concentration of test compound solution. For negative control, saponin solutions were replaced by equal volume of BWW medium, while Nonoxynol 9 was used as positive control.

For the next assay, the system named is mouse spermatozoa. The assay is described as follows: Sander & Cramer spermicidal assay (in vitro). The class given is cell-based. The protocol: as §2, §3, §4, §5, §6

With Acaciaside-B [Ac-B], in the assay with HIV, the “Dose level preventing HIV infection in vitro” value is “greater than or equal to 1.0 microgram per ml”. Further, the “Revival of motility after washing and re-incubation” value with human spermatozoa [1] was “no sign for revival of motility; also recorded: irreversible”. For the same substance, the “Percentage inhibition of hiv growth in p4 cell line, Without Pretreatment” value with NL4.3 virus (Ac-B 0.5 microgram per ml, 48 hours) is recorded as 0%; in the assay on NL4.3 virus (Ac-B 1 microgram per ml) it was 0%; in the assay on NL4.3 virus (Ac-B 2 microgram per ml) it was 0%; in the assay on NL4.3 virus (Ac-B 2.5 microgram per ml) it was 0%. Further, the “Percentage inhibition of hiv growth in p4 cell line, Pretreatment with Ac-B” value in the assay with NL4.3 virus (Ac-B 0.5 microgram per ml, virus pretreated 1 hour at 37 degree C, 48 hours) is reported as 76.53%; in the assay on NL4.3 virus (Ac-B 1 microgram per ml, virus pretreated), 95.86%; in the assay with NL4.3 virus (Ac-B 2 microgram per ml, virus pretreated) it was 96%; in the assay with NL4.3 virus (Ac-B 2.5 microgram per ml, virus pretreated) it was 95.53%. Moreover, in the assay on NL4.3 virus (Ac-B 1.0 microgram per ml (0.005 micromoles) vs AZT at 2 micromole), the “Anti-HIV activity by X-gal staining, compared with AZT” value is listed as “comparable to or greater than that induced by AZT”. Further, the “Inhibition of viral transmission, Ac-B-treated virus” value in the assay on NL4.3 virus (Ac-B greater than or equal to 1.5 microgram per ml) and in the assay with NL4.3 virus (Ac-B ≧1.0 mcg/ml) was above 95% throughout. Also, in the assay on NL4.3 virus (cells infected with untreated virus and cultured in the presence of Ac-B), the “Inhibition of viral transmission, untreated virus” value was “no inhibition of viral transmission”. In addition, the “Penetration of vanguard sperm into bovine cervical mucus column” value with human spermatozoa [2] is recorded as “capillary was devoid of sperm inside the mucus column”. The “MEC as per Sander and Cramer Test” value is recorded as 60 (±2) microgram per ml with rat spermatozoa (Rat spermatozoa (N = 10), all immobilized within 20 seconds) and 60 (±2) microgram per ml with mouse spermatozoa (Mouse spermatozoa (N = 10), all immobilized within 20 seconds). For the same substance, the “MEC, Sander-Cramer test” value in the assay on rat spermatozoa (rats) and in the assay with mouse spermatozoa (mice) was 60 µg/mL each time.
